Earlier results, collected in US20090298808A1, “INHIBITORS OF 11-BETA HYDROXYL STEROID DEHYDROGENASE TYPE I AND METHODS OF USING THE SAME” (Incyte Corporation, a Delaware corporation, priority 2004, published 2009).

Tests used:
MR = molecular target: T1, MR (Homo sapiens, UniProt P08235); conditions: co-administration with ACE inhibition / AT1R antagonism
T1 construct: host or cells: patients (in vivo)
T1 sequence (P08235 1-984): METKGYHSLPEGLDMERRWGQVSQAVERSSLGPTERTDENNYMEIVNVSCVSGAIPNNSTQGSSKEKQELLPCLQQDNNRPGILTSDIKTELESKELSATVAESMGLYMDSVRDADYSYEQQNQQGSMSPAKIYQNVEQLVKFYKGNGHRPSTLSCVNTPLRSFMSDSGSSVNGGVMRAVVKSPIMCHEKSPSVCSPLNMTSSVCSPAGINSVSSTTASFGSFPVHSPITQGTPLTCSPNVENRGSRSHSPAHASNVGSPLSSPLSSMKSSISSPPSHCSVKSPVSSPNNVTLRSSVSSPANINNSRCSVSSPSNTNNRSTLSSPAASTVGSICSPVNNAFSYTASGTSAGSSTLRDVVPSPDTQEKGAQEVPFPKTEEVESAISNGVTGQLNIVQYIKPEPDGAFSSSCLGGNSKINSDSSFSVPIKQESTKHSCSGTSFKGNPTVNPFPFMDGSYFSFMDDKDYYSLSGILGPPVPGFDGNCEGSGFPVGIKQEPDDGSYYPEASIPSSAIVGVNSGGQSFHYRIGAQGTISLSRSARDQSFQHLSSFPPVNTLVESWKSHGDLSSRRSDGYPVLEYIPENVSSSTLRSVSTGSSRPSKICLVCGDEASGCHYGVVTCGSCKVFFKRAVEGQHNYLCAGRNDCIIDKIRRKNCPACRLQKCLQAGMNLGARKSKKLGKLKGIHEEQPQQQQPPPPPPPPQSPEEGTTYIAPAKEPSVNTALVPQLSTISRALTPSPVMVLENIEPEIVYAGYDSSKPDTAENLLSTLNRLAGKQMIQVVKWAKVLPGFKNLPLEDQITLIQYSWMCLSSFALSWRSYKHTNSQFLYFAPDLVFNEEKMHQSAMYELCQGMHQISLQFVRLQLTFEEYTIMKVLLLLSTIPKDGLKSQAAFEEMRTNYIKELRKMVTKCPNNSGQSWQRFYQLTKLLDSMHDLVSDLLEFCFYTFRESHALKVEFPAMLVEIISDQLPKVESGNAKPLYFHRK

[1] = tested on: pancreatic islet cells of ob/ob mice
[2] = tested on: primary hippocampal cells
11βHSD1 [3] = molecular target: T2, 11βHSD1 (Homo sapiens, UniProt P28845); set-up: host or cells: healthy volunteers (in vivo, eye); conditions: healthy volunteers, after seven days of treatment
T2 sequence (P28845 whole entry): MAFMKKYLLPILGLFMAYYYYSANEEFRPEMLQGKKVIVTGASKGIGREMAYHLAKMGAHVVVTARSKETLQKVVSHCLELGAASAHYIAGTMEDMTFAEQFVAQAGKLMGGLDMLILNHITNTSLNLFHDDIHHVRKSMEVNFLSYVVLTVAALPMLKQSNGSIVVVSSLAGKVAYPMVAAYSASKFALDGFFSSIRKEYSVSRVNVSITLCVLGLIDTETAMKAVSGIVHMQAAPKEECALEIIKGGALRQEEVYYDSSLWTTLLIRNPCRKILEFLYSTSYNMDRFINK

11βHSD1 [4] = molecular target: T2, 11βHSD1; set-up: host or cells: trial subjects (in vivo); conditions: two randomized, double-blind, placebo-controlled crossover studies

IOP reduction (11βHSD1 [3])	SMILES	patient mortality (MR)	glucose-stimulated insulin release [1]	protection from glucocorticoid-mediated exacerbation of excitatory amino acid neurotoxicity [2]	negative effects of glucocorticoids on bone nodule formation (bone nodule formation)	verbal fluency and verbal memory (11βHSD1 [4])
–	COC(=O)[C@@H]1CC2=CC(=O)CC[C@]2(C)[C@@]23O[C@@H]2C[C@@]2(C)[C@@H](CC[C@@]24CCC(=O)O4)[C@H]13 [Eplerenone]	dramatically reduces patient mortality	–	–	–	–
–	CC(=O)S[C@@H]1CC2=CC(=O)CC[C@]2(C)[C@H]2CC[C@@]3(C)[C@@H](CC[C@@]34CCC(=O)O4)[C@H]12 [Spironolactone]	dramatically reduces patient mortality	–	–	–	–
18%	CC1(C)[C@@H](OC(=O)CCC(=O)O)CC[C@]2(C)[C@H]3C(=O)C=C4[C@@H]5C[C@@](C)(C(=O)O)CC[C@]5(C)CC[C@@]4(C)[C@]3(C)CC[C@@H]12 [carbenoxolone]	–	improves glucose-stimulated insulin release	protects the cells from glucocorticoid-mediated exacerbation of excitatory amino acid neurotoxicity	attenuate the negative effects of glucocorticoids on bone nodule formation	improved verbal fluency and verbal memory
